≈ marks a conversion by molar mass, not a printed value.

The target in data set [1] is T1, human soluble guanylate cyclase alpha 1 and beta 1 subunits (sGC) stably expressed in Chinese hamster ovary cells (Homo sapiens, UniProt Q02108+Q02153).
T1 construct: expressed in transfected cells; host or cells: Chinese hamster ovary cells, stably transfected
T1 sequence (Q02108 1-690 partner): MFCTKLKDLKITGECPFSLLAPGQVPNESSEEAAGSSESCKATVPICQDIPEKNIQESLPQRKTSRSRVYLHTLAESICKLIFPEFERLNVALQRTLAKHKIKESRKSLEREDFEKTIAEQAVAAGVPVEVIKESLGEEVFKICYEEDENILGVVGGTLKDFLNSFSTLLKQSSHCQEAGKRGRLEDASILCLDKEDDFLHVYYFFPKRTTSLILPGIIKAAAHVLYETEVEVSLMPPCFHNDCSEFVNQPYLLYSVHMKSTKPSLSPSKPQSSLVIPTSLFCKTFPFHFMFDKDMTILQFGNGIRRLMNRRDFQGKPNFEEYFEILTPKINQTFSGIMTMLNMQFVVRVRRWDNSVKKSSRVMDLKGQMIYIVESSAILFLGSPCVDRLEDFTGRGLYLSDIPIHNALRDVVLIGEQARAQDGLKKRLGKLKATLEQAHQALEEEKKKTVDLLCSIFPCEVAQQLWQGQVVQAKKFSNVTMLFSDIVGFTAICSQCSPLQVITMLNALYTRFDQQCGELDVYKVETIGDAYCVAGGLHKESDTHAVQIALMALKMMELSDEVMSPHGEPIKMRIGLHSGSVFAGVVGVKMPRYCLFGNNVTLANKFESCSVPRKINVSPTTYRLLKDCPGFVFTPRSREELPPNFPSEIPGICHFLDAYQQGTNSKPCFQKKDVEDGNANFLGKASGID
T1 sequence (Q02153 1-619): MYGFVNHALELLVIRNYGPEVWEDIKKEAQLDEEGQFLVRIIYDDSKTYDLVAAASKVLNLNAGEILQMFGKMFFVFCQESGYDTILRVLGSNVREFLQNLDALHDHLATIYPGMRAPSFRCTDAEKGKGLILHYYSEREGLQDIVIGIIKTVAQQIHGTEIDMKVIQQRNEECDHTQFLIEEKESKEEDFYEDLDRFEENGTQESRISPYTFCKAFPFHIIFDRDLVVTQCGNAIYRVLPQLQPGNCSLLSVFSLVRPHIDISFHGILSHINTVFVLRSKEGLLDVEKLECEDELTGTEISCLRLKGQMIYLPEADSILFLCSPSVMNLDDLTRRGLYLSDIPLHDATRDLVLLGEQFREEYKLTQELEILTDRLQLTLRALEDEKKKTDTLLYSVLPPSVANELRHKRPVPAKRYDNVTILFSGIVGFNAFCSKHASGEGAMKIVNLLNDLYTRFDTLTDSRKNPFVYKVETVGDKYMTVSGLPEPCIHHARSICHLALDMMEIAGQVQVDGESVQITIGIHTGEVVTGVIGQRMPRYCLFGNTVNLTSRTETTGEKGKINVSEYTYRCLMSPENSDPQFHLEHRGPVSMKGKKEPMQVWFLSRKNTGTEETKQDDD
In words: sGC cellular activator assay: cGMP in CHO cells expressing human sGC, preincubated with ODQ. The class given is cell-based. The following applies: 40 microM ODQ preincubation, 30 min at room temperature, presence or absence of 50% human serum not given, read-out: EC50 nM, Activity of Compounds in Cellular Assay. The method, then:
The sGC cellular activator assay is performed in the presence and absence of 50% human serum (HS) using Chinese hamster ovary cells that have been stably transfected to express the human soluble guanylate cyclase alpha 1 and beta 1 subunits (sGC). Cells are preincubated with 40 microM 1H-[1,2,4]oxadiazolo[4,3-a]quinoxalin-1-one (ODQ), an sGC inhibitor, for one hour in buffer containing 0.1% bovine serum albumin and 3-isobutyl-1-methylxanthine (IBMX). Concentration response curves are prepared for test compounds in DMSO. An intermediate dilution of the compounds is performed in either buffer containing IBMX or type AB HS containing IBMX. Diluted compounds are added to cells and they are incubated at room temperature for thirty minutes. cGMP is measured using a CisBio homogeneous time resolved fluorescence kit and the EC50 is calculated for each compound.

The nature of data set [2]: Assessment of solubility: HT solubility in pION buffer, UV spectrophotometry. The following applies: kinetic from dmso stock.
Data set [3] concerns the target T2, Recombinant human soluble guanylate cyclase (sGC), alpha 1 / beta 1 subunits, heme-free (Homo sapiens, UniProt Q02108+Q02153).
T2 construct: histidine tag (C); made in house; host or cells: Sf9 insect cells (baculovirus coinfection)
T2 sequence (Q02108 1-690 partner): T1 sequence (Q02108 1-690 partner)
T2 sequence (Q02153 1-619): T1 sequence (Q02153 1-619)
In words: Molecular assay: cGMP formation by heme-free recombinant sGC (CisBio cGMP detection kit). The note with it: 300 pM heme-free sGC, 37° C., 60 min, cGMP readout; read-out: EC50 nM, Activity of Compounds in Molecular Assay. The format is biochemical. The essentials: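 Heme-free His-tagged sGC (Sf9-expressed, Tween 20-treated lysate) at 300 pM incubated with compounds (1% DMSO) for 60 min at 37° C in MOPS pH 6.8 with 50 nM GTP, IBMX, TCEP. cGMP quantified by HTRF against calibration curve; EC50 from combined undiluted/diluted values.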

Setting [4] is: pH 6.8, aqueous buffer, Solubility (pH 6.8), pH 6.8.
Setting [5] is: pION system solution buffer, pH 4.5, pH 4.5, aqueous buffer, Solubility (pH 4.5), pH 4.5 buffer, 16-19 h incubation, 1.0% DMSO.
[6] abbreviates: pION system solution buffer, pH 7.4, pH 7.4, aqueous buffer, Solubility (pH 7.4), pH 7.4 buffer, 16-19 h incubation, 1.0% DMSO.

Regarding `Cc1ccc(OCc2ccc(C(=O)N3CCCCC3)cc2C)c(-c2csc(N3C[C@H]4CC[C@@H](C3)[C@@]4(F)C(=O)O)n2)c1` [Compound 221, 8-fluoro-3-(4-{5-methyl-2-[2-methyl-4-(piperidine-1-carbonyl)-benzyloxy]-phenyl}-thiazol-2-yl)-3-aza-bicyclo[3.2.1]octane-8(syn)-carboxylic acid], in data set [1], the EC50 was determined as 75 nM. The solubility was 0.45 µg/mL (≈ 0.779 µM) in data set [2] (setting [4]) and under 0.1 µg/mL in data set [2] (setting [5]).
The corresponding values for `Cc1ccc(OCc2ccc(CN3CCOCC3)cc2C)c(-c2csc(N3CC(C4(C(=O)O)CC4)C3)n2)c1` [Compound 261] are 710 nM, 6.4 µg/mL (≈ 12 µM) and 17 µg/mL (≈ 31.9 µM).
For the compound `Cc1ccc(OCc2ccc(C(=O)N3CCC3)cc2C)c(-c2csc(N3C[C@H]4CC[C@@H](C3)[C@H]4C(=O)O)n2)c1` [Compound 361, 3-(4-{2-[4-(azetidine-1-carbonyl)-2-methyl-benzyloxy]-5-methyl-phenyl}-thiazol-2-yl)-3-aza-bicyclo[3.2.1]octane-8(syn)-carboxylic acid], the EC50 in data set [1] was 17 nM. This compound gave a solubility in data set [2] (setting [4]) of 34 µg/mL (≈ 63.9 µM).
`Cc1ccc(OCc2ccc(CN3CCOCC3)cc2C)c(-c2csc(N3CCC4CC4(C(=O)O)CC3)n2)c1` (stereo not shown) [Compound 231]: the EC50 in data set [1] was determined as 150 nM.
As to `CC[C@]1(C(=O)O)[C@@H]2CC[C@H]1CN(c1nc(-c3cc(C)ccc3OCc3ccc(C(=O)N4CCCCC4)cc3C)cs1)C2` [Compound 250, 8-ethyl-3-(4-{5-methyl-2-[2-methyl-4-(piperidine-1-carbonyl)-benzyloxy]-phenyl}-thiazole-2-yl)-3-aza-bicyclo[3.2.1]octane-8(syn)-carboxylic acid], the EC50 in data set [1] is 140 nM. Also, the figures for the solubility in data set [2] (setting [4]) and in data set [2] (setting [5]) were 13 µg/mL (≈ 22.1 µM) and under 0.1 µg/mL, respectively.
The corresponding values for `Cc1ccc(OCc2ccc(C(=O)N3CC[C@@H](O)C3)cc2C)c(-c2csc(N3C[C@H]4CC[C@@H](C3)[C@H]4C(=O)O)n2)c1` [Compound 341] are 110 nM, 63 µg/mL (≈ 112 µM) and 1.1 µg/mL (≈ 1.96 µM).
`Cc1ccc(OCc2ccc(CN3CCN(C)C(=O)C3)cc2C)c(-c2csc(N3CCC(C(=O)O)CC3)n2)c1` [Compound 292]: the EC50 in data set [1] stood at 10 nM.
On to `Cc1ccc(OCc2ccc(C(=O)N3CCC[C@@H](O)C3)cc2C)c(-c2csc(N3C[C@H]4CC[C@@H](C3)[C@H]4C(=O)O)n2)c1` [Compound 312], for which the EC50 in data set [1] is 35 nM. Moreover, the solubility in data set [2] (setting [4]) is 13 µg/mL (≈ 22.6 µM); in data set [2] (setting [5]), 0.26 µg/mL (≈ 0.452 µM).
With `Cc1ccc(OCc2ccc(C(=O)N3CCCCC3)cc2C)c(-c2nc(N3C[C@H]4CC[C@@H](C3)[C@H]4C(=O)O)sc2F)c1` [Compound 202, 3-[5-fluoro-4-[5-methyl-2-[[2-methyl-4-(piperidine-1-carbonyl)phenyl]methoxy]phenyl]thiazol-2-yl]-3-azabicyclo[3.2.1]octane-8(syn)-carboxylic acid], the EC50 in data set [1] came to 310 nM. Besides, the solubility is 91 µg/mL (≈ 158 µM) in data set [2] (setting [4]), 97 µg/mL (≈ 168 µM) in data set [2] (setting [5]) and over 59 µg/mL in data set [2] (setting [6]).
As to `Cc1ccc(OCc2ccc(CN3CCN(C(=O)C4CC4)CC3)cc2C)c(-c2csc(N3CC(CC(=O)O)C3)n2)c1` [Compound 249], the EC50 in data set [1] came out at 140 nM. The results for the solubility in data set [2] (setting [4]) and in data set [2] (setting [5]) were 51 µg/mL (≈ 88.7 µM) and 45 µg/mL (≈ 78.3 µM), respectively.
The corresponding values for `Cc1ccc(OCc2ccc(C(=O)N3CCOCC3)cc2C)c(-c2csc(N3CC4(CC4C(=O)O)C3)n2)c1` (stereo not shown) [Compound 256] are 500 nM, 82 µg/mL (≈ 154 µM) and 0.69 µg/mL (≈ 1.29 µM).
For `Cc1ccc(OCc2ccc(CN3CCS(=O)(=O)CC3)cc2C)c(-c2csc(N3CC[C@@H](C(=O)O)[C@H]3C)n2)c1` [Compound 245], the EC50 in data set [1] came to 290 nM. Also, the solubility worked out at 48 µg/mL (≈ 84.2 µM) in data set [2] (setting [4]) and 3.6 µg/mL (≈ 6.32 µM) in data set [2] (setting [5]).
The corresponding values for `Cc1ccc(OCc2ccc(C(=O)N3CCCCC3)cc2C)c(-c2csc(N3C[C@H]4CC[C@@H](C3)[C@@]4(O)C(=O)O)n2)c1` [Compound 216, 8-hydroxy-3-(4-{5-methyl-2-[2-methyl-4-(piperidine-1-carbonyl)-benzyloxy]-phenyl}-thiazol-2-yl)-3-aza-bicyclo[3.2.1]octane-8(syn)-carboxylic acid] are 390 nM, 0.17 µg/mL (≈ 0.295 µM) and under 0.1 µg/mL.
For the compound `Cc1ccc(OCc2ccc(C(=O)N3CCOCC3)cc2C#N)c(-c2csc(N3C[C@H]4CC[C@@H](C3)[C@H]4C(=O)O)n2)c1` [Compound 266, 3-(4-{2-[2-cyano-4-(morpholine-4-carbonyl)-benzyloxy]-5-methyl-phenyl}-thiazole-2-yl)-3-aza-bicyclo[3.2.1]octane-8(syn)-carboxylic acid], in data set [1], the EC50 is 42 nM. In addition, the solubility in data set [2] (setting [4]) turned out to be 70 µg/mL (≈ 122 µM); in data set [2] (setting [5]), 0.48 µg/mL (≈ 0.838 µM).
On to `Cc1ccc(OCc2ccc(C(=O)N3CCCCC3)cc2C)c(-c2csc(N3CC[C@@H](C(=O)O)[C@H]3C)n2)c1` [Compound 240], for which the EC50 in data set [1] was 36 nM.
On the same count and under the same terms, in the case of `Cc1ccc(OCc2ccc(C(=O)N3CCCCC3)cc2OC(F)(F)F)c(-c2csc(N3C[C@H]4CC[C@@H](C3)[C@H]4C(=O)O)n2)c1` [Compound 279] it was 11 nM.
On to `Cc1cc(C(=O)N2CCCCC2)ccc1COc1ccc(Cl)cc1-c1csc(N2CCC(C(=O)O)C(C)C2)n1` (stereo not shown) [Compound 103], for which the EC50 in data set [3] was 17 nM. For the same compound, the results for the solubility in data set [2] (setting [5]) and in data set [2] (setting [6]) were 0.3 µg/mL (≈ 0.528 µM) and 35 µg/mL (≈ 61.6 µM), respectively.
The matching figures for `Cc1ccc(OCc2ccc(CN3CCOCC3)cc2C#N)c(-c2csc(N3CCC(C(=O)O)CC3)n2)c1` [Compound 167]: 52 nM, 41 µg/mL (≈ 77 µM) and over 64 µg/mL.
The matching figures for `Cc1ccc(OCc2ccc(CN(C)CC3CCOCC3)cc2C)c(-c2csc(N3CCC(C(=O)O)CC3)n2)c1` [Compound 96]: 550 nM, over 67 µg/mL and over 67 µg/mL.
The matching figures for `Cc1cc(CN2CCS(=O)(=O)CC2)ccc1COc1c(-c2csc(N3CCC(C(=O)O)CC3)n2)cccc1C(F)(F)F` [Compound 151]: 9.9 nM, 0.15 µg/mL (≈ 0.24 µM) and over 62 µg/mL.
Take `Cc1cc(CN2CCS(=O)(=O)CC2)ccc1COc1ccccc1-c1csc(N2CCC(C(=O)O)CC2C)n1` (stereo not shown) [Compound 108]: the EC50 in data set [3] stood at 100 nM. Also, the solubility in data set [2] (setting [5]) was 2.3 µg/mL (≈ 4.04 µM); in data set [2] (setting [6]), over 56 µg/mL.
The matching figures for `Cc1cc(C(=O)N2CCCCC2)ccc1COc1ccc(F)cc1-c1csc(N2CCC(C(=O)O)C(C(F)(F)F)C2)n1` (stereo not shown) [Compound 145]: 650 nM, 0.25 µg/mL (≈ 0.413 µM) and over 60 µg/mL.

As a reminder, the EC50 is the concentration at which the effect is half-maximal. Usually solubility stands for how much of the substance goes into solution per volume. Low readings indicate little dissolved substance, high ones much dissolved substance.
